US20060257539A1 (priority 2005, published 2006)

Experiments:
[1] = standard plate well diffusion assay of RTD beverage; assay type: cell-based
[2] = test system: C. botulinum Beluga E (Non-proteolytic) vegetative cells; assay type: cell-based, Clostridium botulinum; details: pH 5.5
[3] = test system: C. botulinum E mixed strains vegetative cells; assay type: cell-based, Clostridium botulinum
Lactobacillus plantarum = assay type: cell-based
[4] = comparative antimicrobial activity in various foodstuff or media (summary table); parameters: key: + means antimicrobial activity, multiple + indicates increased antimicrobial activity; ++: multiple + indicates increased antimicrobial activity; +++: multiple + indicates increased antimicrobial activity; − means no antimicrobial activity
[5] = test system: C. botulinum Alaska E vegetative cells; assay type: cell-based, Clostridium botulinum
[6] = test system: all strains of C. botulinum tested (vegetative cells); assay type: cell-based, Clostridium botulinum
[7] = test system: C. botulinum Toxin type B (non-proteolytic) spores; assay type: cell-based, Clostridium botulinum; details: pH 5.5
[8] = test system: C. botulinum Alaska E (non-proteolytic) vegetative cells; assay type: cell-based, Clostridium botulinum; details: pH 5.5
[9] = test system: Lactococcus lactis subsp. cremoris; assay type: cell-based
[10] = test system: C. botulinum 33A (proteolytic) vegetative cells; assay type: cell-based, Clostridium botulinum; details: pH 5.5
[11] = test system: C. botulinum Toxin type A (proteolytic) spores; assay type: cell-based, Clostridium botulinum; details: pH 5.5
[12] = test system: C. botulinum Beluga E vegetative cells; assay type: cell-based, Clostridium botulinum
[13] = test system: C. botulinum Toxin type B (proteolytic) spores; assay type: cell-based, Clostridium botulinum; details: pH 5.5
[14] = test system: C. botulinum Toxin type E spores; assay type: cell-based, Clostridium botulinum; details: pH 5.5
[15] = test system: Lactococcus lactis subsp. cremoris; assay type: cell-based; remark: listed apart in the source
[16] = test system: Lactococcus lactis subsp. cremoris; assay type: cell-based; remark: listed apart in the source
[17] = test system: all tested C. botulinum strains (spores); assay type: cell-based, Clostridium botulinum
[18] = test system: C. botulinum 53B (proteolytic) vegetative cells; assay type: cell-based, Clostridium botulinum; details: pH 5.5

In the case of ε-poly-L-lysine, the “effect on apparent nisin activity in RTD beverage (in words)” value ([1]; very low levels of ε-poly-L-lysine (50 ppm) added to nisin 250 IU/ml) is reported as “significantly increased”, the Inhibition zone ([1]; ε-poly-L-lysine 50 ppm alone, fruit juice-containing RTD beverage) is reported as 0 mm and the “Inhibition zone against indicator C. botulinum strain Beluga E (Non-proteolytic)” value [2] is reported as 0 mm. For the same substance, the “Inhibition zone against indicator C. botulinum E mixed strains” value [3] was 0 mm, the “inhibition of growth of L. plantarum (in words)” value (Lactobacillus plantarum) was “very limited inhibition on the initial growth of L. plantarum” and the antimicrobial activity ([4]; BHI broth) was “−”. For the same substance, the antimicrobial activity ([4]; Beverages) was “+”, the antimicrobial activity ([4]; Brain heart infusion agar (BHI)) was “−” and the antimicrobial activity ([4]; Green beans packed in water) was “−”. The antimicrobial activity ([4]; Hot dogs) was “−”, the antimicrobial activity ([4]; Savory cream) was “−” and the “Inhibition zone against indicator C. botulinum strain Alaska E” value [5] was 0 mm. The “inhibition of growth of C. botulinum strains from vegetative cells (in words)” value [6] was “did not show clear or strong inhibition”, the “Inhibition zone against indicator C. botulinum strain Toxin type B (non-proteolytic)” value [7] was 0 mm and the “Inhibition zone against indicator C. botulinum strain Alaska E (non-proteolytic)” value [8] was 0 mm. The “effect on apparent nisin activity (in words)” value [9] was “significantly increased”, the “Inhibition zone against indicator C. botulinum strain 33A (proteolytic)” value [10] was 0 mm and the “Inhibition zone against indicator C. botulinum strain Toxin type A (proteolytic)” value [11] was 0 mm. The “Inhibition zone against indicator C. botulinum strain Beluga E” value [12] was 0 mm, the “Inhibition zone against indicator C. botulinum strain Toxin type B (proteolytic)” value [13] was 0 mm and the “Inhibition zone against indicator C. botulinum strain Toxin type E” value [14] was 0 mm. The Apparent nisin activity [15] was 0 IU/g, the “effect on measurable nisin activity in dairy product (in words)” value [15] was “increased the measurable nisin activity” and the Inhibition zone [16] was 0 mm. The “inhibition of growth of C. botulinum from spores (in words)” value [17] was “unable to inhibit the growth of C. botulinum from spores” and the “Inhibition zone against indicator C. botulinum strain 53B (proteolytic)” value [18] was 0 mm.
